≈ marks a conversion by molar mass, not a printed value.
How the values were obtained:
Type in all cases: functional
Phytophthora capsici = assay: Antioomycete activity against Phytophthora capsici by microtiter broth dilution assay
Botrytis cinerea = assay: Antifungal activity against Botrytis cinerea
Saccharomyces cerevisiae = assay: Antimicrobial activity against Saccharomyces cerevisiae

Molecule | MIC (Phytophthora capsici) [µg/mL] | MIC (Botrytis cinerea) [µg/mL] | MIC (Saccharomyces cerevisiae) [µg/mL]
COCC(=O)N(c1c(C)cccc1C)C(C)C(=O)OC (stereo not drawn) [METALAXYL] | 30 (≈ 107 µM) | – | –
Clc1ccc(COC(Cn2ccnc2)c2ccc(Cl)cc2Cl)c(Cl)c1 (stereo not drawn) [MICONAZOLE] | – | 10 (≈ 24 µM) | 5 (≈ 12 µM)
CSC(CC(=O)c1ccccc1N)C(=O)O (stereo not drawn) [THIOBUTACIN] | 10 (≈ 41.8 µM) | 50 (≈ 209 µM) | 30 (≈ 125 µM)
NYSTATIN | – | 3 | 7
